Here are results for 16 molecules from patent US20240217968A1, “PHARMACEUTICAL COMPOUND” (DUKE STREET BIO LIMITED, priority 2021, published 2024).

Experiment [1] concerns the target T1, recombinant human Flag-tagged PARP7 (amino acids 456-657) (Homo sapiens, UniProt Q7Z3E1).
T1 construct: recombinant human Flag-tagged PARP7 (amino acids 456-657)
T1 sequence (Q7Z3E1 456-657): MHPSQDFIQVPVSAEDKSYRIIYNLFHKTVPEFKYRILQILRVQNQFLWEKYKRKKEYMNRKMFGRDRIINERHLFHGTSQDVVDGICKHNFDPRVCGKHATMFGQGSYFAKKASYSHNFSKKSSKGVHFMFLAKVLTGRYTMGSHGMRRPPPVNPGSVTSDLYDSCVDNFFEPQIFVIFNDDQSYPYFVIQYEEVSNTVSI
Nature of the experiment: PARP7 biochemical DELFIA assay (auto-MARylation). The following applies: DELFIA readout, IC50 class. The procedure, abridged: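 Readout is DELFIA time-resolved Eu fluorescence (Ex337 nm, Em620 nm) of biotin-ADP-ribose on immobilised Flag-tagged PARP7 456-657. Enzyme (12.5-37.5 nM as added) sat 30 min with compound before biotin-NAD+ (15 μM solution, pH 7.5 HEPES buffer) started 2-3 h room-temperature self-modification, stopped with excess NAD+.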

Experiment [2] concerns MC38 colorectal cancer cells. Nature of the experiment: Induction of IFNβ in cancer cell supernatants (mouse IFNβ ELISA), MC38. It is filed as cell-based, murine. As to conditions: 10 μM compound 177 alone or in combination with chemotherapeutic agents, 24 hours, FIG. 1. As for the experimental part: (§1) Selected compounds were also tested for their ability to induce type I interferon (interferon β, IFNβ) production in cancer cells as a cell-based measure of PARP7 inhibition and its effects on stimulating the STING pathway signalling. […] Such data highlight the therapeutic utility of combining PARP7 inhibitors with chemotherapy or other agents that can induce aberrant cytosolic nucleic acids in order to further enhance an anti-tumour immune response.
(§2) CT26 and MC38 cells were seeded in 96-well microplates each at a density of 30,000 cells per well. Following overnight incubation, cells were treated with either DMSO, 10 μM compound 177, or various chemotherapeutic agents (final DMSO concentration of 0.2% v/v). Cells were also treated with 10 μM compound 177 in combination with various chemotherapeutic agents. After 24 hours, IFNβ was measured from cell supernatants using a sandwich enzyme linked immunosorbent assay (ELISA) assay kit (PBL Assay Sciences, catalogue number 42410-2) according to manufacturer's instructions.
For orientation: An ELISA detects its analyte on a solid surface through an enzyme-linked reagent.

Experiment [3] relates to CT26 colorectal cancer cells. In words: Induction of IFNβ in cancer cell supernatants (mouse IFNβ ELISA), CT26. The following applies: 10 μM compound 177 alone or in combination with chemotherapeutic agents, 24 hours, FIG. 1. In kind it is cell-based, murine. As for the experimental part: as §1, §2
A further experiment relates to tumour. As to conditions: animal models; cited from earlier work.
The subject of experiment [4] is cancer cell lines with high baseline expression of interferon stimulated genes. As to conditions: cited from earlier work.
Experiment [5] deals with type I interferon responses. As to conditions: both in vitro and in vivo; cited from earlier work.

With `CC(COCCC(=O)N1CCN(c2ncc(C(F)(F)F)cn2)CC1)n1nc(C(F)(F)F)c2c(=O)[nH]ncc21` (single isomer, unassigned) [Compound 177, 1-(1-(3-oxo-3-(4-(5-(trifluoromethyl)pyrimidin-2-yl)piperazin-1-yl)propoxy)propan-2-yl)-3-(trifluoromethyl)-1,5-dihydro-4H-pyrazolo[3,4-d]pyridazin-4-one], the IC50 (as a rule, the concentration at which inhibition is half-maximal) in experiment [1] is at most 100 nM. The “induction of IFNβ in cell supernatants” value in experiment [2] and in experiment [3] was “induction of IFNβ” in each case. As for `CC(COCCC(=O)N1CCN(c2ncc(C#N)cn2)CC1)n1cc(C(F)(F)F)c2c(=O)[nH]ncc21` (centres unmarked) [Compound 465], in experiment [1], the IC50 is at most 100 nM. Still for that read-out and setting: to `Cc1cc(=O)n(CCOCCC(=O)N2CCN(c3ncc(C(F)(F)F)cn3)CC2)c2cn[nH]c(=O)c12` [Compound 470, 4-methyl-1-(2-(3-oxo-3-(4-(5-(trifluoromethyl)pyrimidin-2-yl)piperazin-1-yl)propoxy)ethyl)pyrido[2,3-d]pyridazine-2,5(1H,6H)-dione] belongs at most 100 nM. The same measure, in the same setting: the value for `O=C(CCOCCn1nc(C(F)(F)F)c2c(=O)[nH]ncc21)N1CCN(c2cc(C(F)(F)F)[nH]n2)CC1` [Compound 471] was at most 100 nM; that for `Cc1c(C(F)(F)F)c2c(=O)[nH]ncc2n1C(C)COCCC(=O)N1CCN(c2ncc(C(F)(F)F)cn2)CC1` (centres unmarked) [Compound 474] was at most 100 nM; that for `Cc1c(C(F)(F)F)c2c(=O)[nH]ncc2n1C(C)COCCC(=O)N1CCN(c2ncc(C(F)(F)F)cn2)CC1` (centres unmarked) [Compound 475] was at most 100 nM.

For `O=C(c1cccc(Cn2cc(C(F)(F)F)c3c(=O)[nH]ncc32)c1)N1CCN(c2ncc(C(F)(F)F)cn2)CC1` [Compound 478], the 50% inhibitory concentration (IC50) in experiment [1] is at most 100 nM.

Turning to `CC(COCCC(=O)N1CCN(c2ncc(C(C)(F)F)cn2)CC1)n1cc(C(F)(F)F)c2c(=O)[nH]ncc21` (centres unmarked) [Compound 481], in experiment [1], the IC50 was at most 100 nM. Same read-out and setting: the value for `CC(COCCC(=O)N1CCN(c2ccc(C(C)(F)F)cn2)CC1)n1cc(C(F)(F)F)c2c(=O)[nH]ncc21` (centres unmarked) [Compound 483] was at most 100 nM; that for `N#Cc1cnc(N2CCN(C(=O)CCOCCn3cc(C(F)(F)F)c4c(=O)[nH]ncc43)CC2)s1` [Compound 487] was at most 100 nM; that for `O=C(CCOCCn1nc(C(F)(F)F)c2c(=O)[nH]ncc21)N1CCN(c2ncc(C(F)(F)F)[nH]2)CC1` [Compound 488] was at most 100 nM.

Turning to `CC(COCCC(=O)N1CCN(c2cc(C(F)(F)F)[nH]n2)CC1)n1nc(C(F)(F)F)c2c(=O)[nH]ncc21` (centres unmarked) [Compound 489], in experiment [1], the 50% inhibitory concentration (IC50) was at most 100 nM. Take `O=C(OCC1CC1Cn1nc(C(F)(F)F)c2c(=O)[nH]ncc21)N1CCN(c2ncc(C(F)(F)F)cn2)CC1` (centres unmarked) [Compound 492]: the IC50 in experiment [1] is at most 100 nM. Same read-out and setting: the value for `O=C(OCC1CC1Cn1nc(C(F)(F)F)c2c(=O)[nH]ncc21)N1CCN(c2ncc(C(F)(F)F)cn2)CC1` (centres unmarked) [Compound 493] was at most 100 nM; that for `N#Cc1cnc(N2CCN(C(=O)CCOCCn3nc(C(F)(F)F)c4c(=O)[nH]ncc43)CC2)s1` [Compound 502] was at most 100 nM. Regarding `C[C@@H](COCCC(=O)N1CCN(c2ncc(C(F)(F)F)cn2)CC1)Nc1cn[nH]c(=O)c1C(F)(F)F` [RBN-2397], in the experiment on tumour, the “tumour regression and specific anti-tumour immunity” value is given as “tumour regression”. Moreover, the inhibition of proliferation result in experiment [4] is “potently inhibited proliferation”. Further, the “type I interferon responses” value in experiment [5] is listed as “restored type I interferon responses”.
